# According to patent US20090275730A1, “Temperature responsive depsipeptide polymer” (priority 2004, published 2009):
# Assay: Water solubility and temperature responsibility in aqueous solvent (visual / turbidity)
# Excerpt: However, the depsipeptide unit is not considered to be a material which exerts temperature responsibility in an aqueous solvent containing no organic solvent. […] Accordingly, the depsipeptide unit -Gly-X2-Cly-Hmb-Pro-(X2=any α-amino acid residue) is thought to be unsuitable as a temperature responsive material and thus has not been investigated intensively.
substance,measurement,value
Poly[(Gly^1-Val^2-Gly^3-Hmb^4-Ala^5-Pro^6)-co-(Gly^7-Lys(Z)^8-Gly^9-Val^10-Ala^11-Pro^12)],temperature responsibility in aqueous solvent,temperature responsibility thereof was confirmed
